Measurements reported in PMC10975178, “Evaluation on the Potential for Hepatotoxic Components from Herba Epimedii to Induce Apoptosis in HepG2 Cells and the Analysis of the Influence of Metabolism in Liver Microsomes” (Molecules, 2024).
Like-named read-outs stand apart in the source and are kept apart here.

Assays:
[1] = assay type: in vitro ADME, SD rats; settings: SD, rat, microsomes, 1 h, 5 μM
in vitro [2] = assay type: in vitro ADME, rhesus monkeys; settings: rhesus monkey, microsomes; for final amount remaining: 60 min, 5 μM
caspase-9 = assay: Western blot, caspase-9 expression in HepG2 cells; assay type: cell-based; settings: 24 h, high concentration (sagittatoside A 49, icariside I 50, baohuoside I 32, icaritin 3.8 μg/mL), vs untreated cells
Procedure: To explore the mechanism of apoptosis induced by the hepatotoxic compounds, the expression of key proteins related to apoptosis, including Bax, Bcl-2, Caspase-3 and Caspase-9, was assessed by western blotting. HepG2 cells were treated with different concentrations of the hepatotoxic compounds for 24 h and collected with a cell scraper. The concentrations of sagittatoside A were set to 12.2, 24.5, and 49 μg/mL; those of icariside I were 12.5, 25, and 50 μg/mL; baohuoside I was used at 8, 16, and 32 μg/mL; and icaritin was tested at 0.9, 1.9 and 3.8 μg/mL. The cells were washed twice with PBS and lysed in total protein cell lysis buffer. Protein concentrations were determined using a BCA protein assay kit (Thermo Fisher Scientific, Waltham, MA, USA). Then, to destroy the 3-dimensional protein structure, the proteins in the loading buffer were heated at 95 °C for 5 min. An equal amount of protein from each sample was separated by SDS-PAGE on 10% SDS–polyacrylamide gels. After the protein was transferred to a polyvinylidene difluoride membrane (Millipore, Bedford, MA, USA), the membrane was incubated in blocking buffer (5% nonfat dairy milk in TBST) for 2 h and probed with various antibodies (1:1000) overnight at 4 °C. The membrane was then probed with a secondary antibody (1:5000) for 2 h at room temperature, and detection was performed with an enhanced chemiluminescence kit (Millipore, Bedford, MA, USA). β-Actin was used as the control to confirm equal loading. Densitometry index analysis of the bands was conducted using a gel imagery system. The changes in the protein expression levels are expressed as percentages relative to the levels measured in the corresponding control groups.

in vitro [3] = assay type: in vitro ADME, beagle dogs; settings: beagle, dog, microsomes; for amount remaining: 1 h, 5 μM
HepG2 cells = assay: HepG2 cell apoptosis by flow cytometry (Annexin V-FITC/PI); assay type: cell-based; settings: 24 h
Procedure: HepG2 cells were cultured in Roswell Park Memorial Institute (RPMI) 1640 medium (GIBCO, Grand Island, NY, USA) supplemented with 10% heat-inactivated fetal bovine serum (PAN Biotech GmbH, Aidenbach, Germany), 100 U/mL penicillin, and 100 μg/mL streptomycin. The cells were maintained in a humidified atmosphere with 5% CO2 at 37 °C. Upon reaching 90% confluence, the cells were prepared as single-cell suspensions at a density of 1 × 10^4 cells/mL by treatment with 0.25% trypsin with 0.02% EDTA and then dispensed into 12-well plates (Corning, NY, USA) with a total volume of 1.5 mL per well. After culturing for 24 h, the medium was discarded, and the cells were incubated with fresh medium or medium containing different hepatotoxic compounds at various concentrations for an additional 24 h. […] After treatment, the cells were collected for apoptosis analysis. To investigate the effects of the hepatotoxic compounds on HepG2 cell apoptosis, flow cytometry was performed with a FACSCalibur flow cytometer (BD Biosciences) using an Annexin V-FITC apoptosis detection kit. The cells were prepared according to the manufacturer’s instructions. Briefly, the collected cell pellets were washed three times by centrifugation at 2000 rpm and 4 °C for 5 min with PBS and resuspended in binding buffer. Then, the cells were incubated with Annexin V-FITC for 15 min, propidium iodide (PI) was added, and the cells were incubated for another 5 min. The whole labeling process was performed in the dark. After fluorescent labeling, the cell suspension was immediately analyzed by flow cytometry. Cells in the early phases of apoptosis can bind Annexin V-FITC but exclude PI, while cells in late apoptosis or those that are necrotic can be stained with Annexin V-FITC and PI simultaneously.

in vitro [4] = assay type: in vitro ADME, rhesus monkeys; settings: rhesus monkey, microsomes; for amount remaining: 1 h, 5 μM
in vitro [5] = assay type: in vitro ADME, beagle dogs; settings: beagle, dog, microsomes; for final amount remaining: 60 min, 5 μM
[6] = assay type: in vitro ADME, SD rats; settings: SD, rat, microsomes, 60 min, 5 μM

| amount remaining [1] [%] | final amount remaining (in vitro [2]) [%] | amount remaining (in vitro [3]) [%] | amount remaining (in vitro [4]) [%] | final amount remaining (in vitro [5]) [%] | final amount remaining [6] [%] | CLint scaled at 5 μM (in vitro [2]) [mL/min/kg] | CLint scaled at 5 μM (in vitro [3]) [mL/min/kg] | CLint scaled at 5 μM (in vitro [4]) [mL/min/kg] | CLint scaled at 5 μM (in vitro [5]) [mL/min/kg] | SMILES | caspase-9 expression (caspase-9) | apoptosis rate (HepG2 cells; 3.8 μg/mL, mean ± SD n = 3, p < 0.01 vs control) [%] | apoptosis rate (HepG2 cells; 50 μg/mL, mean ± SD n = 3, no change vs control) [%] | apoptosis rate (HepG2 cells; 32 μg/mL, mean ± SD n = 3, p < 0.05 vs control) [%] |
| --- | --- | --- | --- | --- | --- | --- | --- | --- | --- | --- | --- | --- | --- | --- |
| 48.95 ± 4.13 | 14.86 ± 0.76 | 16.75 ± 0.20 | 24.73 ± 2.38 | 4.42 ± 0.67 | 19.44 ± 0.36 | – | – | – | – | COc1ccc(-c2oc3c(CC=C(C)C)c(O)cc(O)c3c(=O)c2O)cc1 [icaritin] | significant increase | 25.93 ± 0.66 | – | – |
| 2.38 ± 0.32 | 17.23 ± 5.20 | 34.93 ± 2.83 | 6.50 ± 0.49 | 30.79 ± 3.26 | 22.71 ± 10.94 | 36.4 | 25.2 | 38.1 | 24.7 | COc1ccc(-c2oc3c(CC=C(C)C)c(O[C@@H]4O[C@H](CO)[C@@H](O)[C@H](O)[C@H]4O)cc(O)c3c(=O)c2O)cc1 [icariside I] | significant increase | – | 2.39 ± 0.34 | – |
| 8.52 ± 0.15 | 0.86 ± 0.17 | 11.74 ± 0.78 | 12.41 ± 1.02 | 5.69 ± 0.33 | 1.55 ± 0.33 | – | 27.6 | – | 28.4 | COc1ccc(-c2oc3c(CC=C(C)C)c(O)cc(O)c3c(=O)c2O[C@@H]2O[C@@H](C)[C@H](O)[C@@H](O)[C@H]2O)cc1 [baohuoside I] | significant increase | – | – | 3.93 ± 0.20 |
